Here are results for nine compounds from ChEMBL document CHEMBL1909294, “Translating clinical findings into knowledge in drug safety evaluation--drug induced liver injury prediction system (DILIps)” (PLoS Comput Biol, 2011).

The subject of data set [1] is Hepatotoxicity.
Data set [2] relates to Hepatotoxicity. The source holds these as a separate data set.
For data set [3], the system named is Hepatotoxicity. This is another data set of the same source.
Data set [4] deals with Hepatotoxicity. This is another data set of the same source.
The test system of data set [5] is Hepatotoxicity. The source holds these as a separate data set.
The subject of data set [6] is Hepatotoxicity. The source holds these as a separate data set.
For data set [7], the system named is Hepatotoxicity. The source holds these as a separate data set.
Data set [8] concerns Hepatotoxicity. The source holds these as a separate data set.
The test system of data set [9] is Hepatotoxicity. The source holds these as a separate data set.
In data set [10] the test system is Hepatotoxicity. This is another data set of the same source.
The test system of data set [11] is Hepatotoxicity. The source holds these as a separate data set.
Data set [12] has as its system Hepatotoxicity. This is another data set of the same source.
In data set [13] the test system is Hepatotoxicity. The source holds these as a separate data set.
Data set [14] deals with Hepatotoxicity. The source holds these as a separate data set.

Molecules are shown by their SMILES.
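Throughout, for HepSE Combined Scores: combined hepatic side effect score as listed in the training data of the Drug Induced Liver Injury Prediction System (DILIps).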
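Throughout, for HepSE bilirubinemia: bilirubinemia hepatic side effect score drawn from the DILIps training data, a prediction system for drug-induced liver injury; call rule not given here.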
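Throughout, for HepSE cholecystitis: Cholecystitis-related hepatic side effect score drawn from the DILIps (drug-induced liver injury prediction) training data set; call rule not given here.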
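Throughout, for HepSE cholelithiasis: hepatic side effect score for cholelithiasis, drawn from the DILIps training data for predicting drug-induced liver injury; call rule not given here.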
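Throughout, for HepSE cirrhosis: cirrhosis hepatic side effect score taken from the DILIps (drug-induced liver injury prediction) training set; call rule not given here.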
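Throughout, for HepSE elevated liver function tests: hepatic side effect score for raised liver function tests, as recorded in the DILIps training set used for predicting drug-induced liver injury.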
Throughout, for HepSE hepatic failure: call rule not given here.
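Throughout, for HepSE hepatic necrosis: score of hepatic side effects for hepatic necrosis, drawn from the training data of DILIps, a prediction system for drug-induced liver injury; call rule not given here.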
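Throughout, for HepSE hepatitis: Hepatitis-related hepatic side effect score taken from the training data of DILIps, a prediction system for drug-induced liver injury; call rule not given here.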
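Throughout, for HepSE hepatomegaly: hepatic side effect score for hepatomegaly, taken from the training set of the DILIps drug-induced liver injury prediction system; call rule not given here.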
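Throughout, for HepSE jaundice: Jaundice-related hepatic side-effect score drawn from the training data of the DILIps (drug-induced liver injury prediction system); call rule not given here.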
Throughout, for HepSE liver disease: call rule not given here.
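Throughout, for HepSE liver fatty: hepatic side effect score for fatty liver, taken from the DILIps training set for predicting drug-induced liver injury; call rule not given here.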
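Throughout, for HepSE liver function tests abnormal: hepatic side effect score taken from the DILIps (drug-induced liver injury prediction system) training data, here covering abnormal liver function test findings.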

Turning to `C[C@H](CCC(=O)O)[C@H]1CC[C@H]2[C@@H]3[C@@H](O)C[C@@H]4C[C@H](O)CC[C@]4(C)[C@H]3CC[C@]12C` [URSODIOL], the HepSE_hepatic failure in the data set with Hepatotoxicity [1] is listed as 0. In addition, in the data set with Hepatotoxicity [2], the HepSE_jaundice was determined as 0. The “HepSE_Combined Scores” value in the data set with Hepatotoxicity [3] was 1. Moreover, the HepSE_bilirubinemia in the data set on Hepatotoxicity [4] came to 0. Besides, in the data set with Hepatotoxicity [5], the “HepSE_liver function tests abnormal” value is reported as 0. Besides, the HepSE_liver fatty in the data set with Hepatotoxicity [6] came out at 0. Also, the HepSE_liver disease in the data set with Hepatotoxicity [7] was 0. Further, the HepSE_cholelithiasis in the data set on Hepatotoxicity [8] was found to be 0. In the data set on Hepatotoxicity [9], this compound had a HepSE_hepatic necrosis of 0. This compound also registered a HepSE_hepatomegaly in the data set on Hepatotoxicity [10] of 0. This compound also yielded a HepSE_cirrhosis in the data set with Hepatotoxicity [11] of 0. The HepSE_cholecystitis in the data set on Hepatotoxicity [12] worked out at 1. The HepSE_hepatitis in the data set on Hepatotoxicity [13] is recorded as 0. Further, in the data set on Hepatotoxicity [14], the “HepSE_elevated liver function tests” value was determined as 0.

For the compound `CC(C)[C@H](N)C(=O)OCCOCn1cnc2c(=O)[nH]c(N)nc21` [VALACYCLOVIR], in the data set on Hepatotoxicity [1], the HepSE_hepatic failure was found to be 0. Further, the HepSE_jaundice with Hepatotoxicity [2] turned out to be 0. The “HepSE_Combined Scores” value in the data set with Hepatotoxicity [3] was 1. Besides, in the data set with Hepatotoxicity [4], the HepSE_bilirubinemia came to 0. Further, in the data set with Hepatotoxicity [5], the “HepSE_liver function tests abnormal” value is given as 0. Further, the HepSE_liver fatty in the data set with Hepatotoxicity [6] is given as 0. Further, the HepSE_liver disease in the data set with Hepatotoxicity [7] amounted to 0. Further, the HepSE_cholelithiasis in the data set on Hepatotoxicity [8] stood at 0. Moreover, in the data set with Hepatotoxicity [9], the HepSE_hepatic necrosis came to 0. In addition, the HepSE_hepatomegaly in the data set on Hepatotoxicity [10] is reported as 0. This compound yielded a HepSE_cirrhosis with Hepatotoxicity [11] of 0. Also, in the data set on Hepatotoxicity [12], the HepSE_cholecystitis was 0. Besides, the HepSE_hepatitis in the data set with Hepatotoxicity [13] is 1. Further, the “HepSE_elevated liver function tests” value with Hepatotoxicity [14] turned out to be 0.

In the data set on Hepatotoxicity [1], `Cc1onc(-c2ccccc2)c1-c1ccc(S(N)(=O)=O)cc1` [VALDECOXIB] registered a HepSE_hepatic failure of 0. For the same compound, the HepSE_jaundice in the data set on Hepatotoxicity [2] is on record as 0. In addition, the “HepSE_Combined Scores” value in the data set on Hepatotoxicity [3] stood at 2. The compound further yielded a HepSE_bilirubinemia in the data set with Hepatotoxicity [4] of 0. Moreover, the “HepSE_liver function tests abnormal” value with Hepatotoxicity [5] is reported as 0. In the data set with Hepatotoxicity [6], the HepSE_liver fatty worked out at 0. This compound also yielded a HepSE_liver disease in the data set with Hepatotoxicity [7] of 0. Also, in the data set on Hepatotoxicity [8], the HepSE_cholelithiasis stood at 1. The compound also yielded a HepSE_hepatic necrosis in the data set with Hepatotoxicity [9] of 0. The compound further came in with a HepSE_hepatomegaly in the data set on Hepatotoxicity [10] of 0. Further, the HepSE_cirrhosis in the data set with Hepatotoxicity [11] came to 0. This compound also registered a HepSE_cholecystitis with Hepatotoxicity [12] of 0. Moreover, in the data set with Hepatotoxicity [13], the HepSE_hepatitis amounted to 1. Also, the “HepSE_elevated liver function tests” value with Hepatotoxicity [14] is reported as 0.

`CC(C)[C@H](N)C(=O)OCC(CO)OCn1cnc2c(=O)nc(N)[nH]c21` (stereo partly specified) [VALGANCICLOVIR] had a HepSE_hepatic failure in the data set with Hepatotoxicity [1] of 0. In the data set on Hepatotoxicity [2], this compound displayed a HepSE_jaundice of 1. The “HepSE_Combined Scores” value in the data set on Hepatotoxicity [3] was 2. The compound also came in with a HepSE_bilirubinemia with Hepatotoxicity [4] of 0. The “HepSE_liver function tests abnormal” value with Hepatotoxicity [5] worked out at 0. Besides, the HepSE_liver fatty in the data set with Hepatotoxicity [6] was 0. For the same compound, in the data set with Hepatotoxicity [7], the HepSE_liver disease is reported as 0. The same compound came in with a HepSE_cholelithiasis with Hepatotoxicity [8] of 0. In addition, in the data set with Hepatotoxicity [9], the HepSE_hepatic necrosis is 0. For the same compound, the HepSE_hepatomegaly in the data set on Hepatotoxicity [10] amounted to 0. In addition, the HepSE_cirrhosis with Hepatotoxicity [11] was 0. The HepSE_cholecystitis with Hepatotoxicity [12] is 0. The HepSE_hepatitis in the data set with Hepatotoxicity [13] worked out at 1. Also, the “HepSE_elevated liver function tests” value in the data set with Hepatotoxicity [14] came to 0.

On to `CCCCC(=O)OCC(=O)[C@]1(O)Cc2c(O)c3c(c(O)c2[C@@H](O[C@H]2C[C@H](NC(=O)C(F)(F)F)[C@H](O)[C@H](C)O2)C1)C(=O)c1c(OC)cccc1C3=O` [VALRUBICIN], for which the HepSE_hepatic failure in the data set on Hepatotoxicity [1] is 0. The compound also gave a HepSE_jaundice with Hepatotoxicity [2] of 0. Besides, the “HepSE_Combined Scores” value in the data set on Hepatotoxicity [3] is on record as 0. In the data set on Hepatotoxicity [4], this compound returned a HepSE_bilirubinemia of 0. Moreover, in the data set with Hepatotoxicity [5], the “HepSE_liver function tests abnormal” value turned out to be 0. Moreover, the HepSE_liver fatty in the data set with Hepatotoxicity [6] is 0. In the data set on Hepatotoxicity [7], this compound showed a HepSE_liver disease of 0. This compound returned a HepSE_cholelithiasis with Hepatotoxicity [8] of 0. In addition, in the data set on Hepatotoxicity [9], the HepSE_hepatic necrosis was 0. In the data set on Hepatotoxicity [10], the HepSE_hepatomegaly was found to be 0. The compound further came in with a HepSE_cirrhosis with Hepatotoxicity [11] of 0. In the data set on Hepatotoxicity [12], this compound yielded a HepSE_cholecystitis of 0. For the same compound, the HepSE_hepatitis in the data set with Hepatotoxicity [13] is 0. In addition, the “HepSE_elevated liver function tests” value in the data set with Hepatotoxicity [14] is listed as 0.

In the data set on Hepatotoxicity [1], `CN[C@H](CC(C)C)C(=O)N[C@H]1C(=O)N[C@@H](CC(N)=O)C(=O)N[C@H]2C(=O)N[C@H]3C(=O)N[C@H](C(=O)N[C@H](C(=O)O)c4cc(O)cc(O)c4-c4cc3ccc4O)[C@H](O)c3ccc(c(Cl)c3)Oc3cc2cc(c3O[C@@H]2O[C@H](CO)[C@@H](O)[C@H](O)[C@H]2O[C@H]2C[C@](C)(N)[C@H](O)[C@H](C)O2)Oc2ccc(cc2Cl)[C@H]1O` [VANCOMYCIN] showed a HepSE_hepatic failure of 0. For the same compound, in the data set with Hepatotoxicity [2], the HepSE_jaundice was 0. Further, the “HepSE_Combined Scores” value in the data set with Hepatotoxicity [3] is 0. In the data set on Hepatotoxicity [4], the HepSE_bilirubinemia was determined as 0. In the data set with Hepatotoxicity [5], the “HepSE_liver function tests abnormal” value came to 0. This compound came in with a HepSE_liver fatty in the data set with Hepatotoxicity [6] of 0. In addition, the HepSE_liver disease in the data set with Hepatotoxicity [7] is listed as 0. In the data set with Hepatotoxicity [8], this compound gave a HepSE_cholelithiasis of 0. Moreover, in the data set on Hepatotoxicity [9], the HepSE_hepatic necrosis amounted to 0. The HepSE_hepatomegaly with Hepatotoxicity [10] is recorded as 0. In the data set on Hepatotoxicity [11], this compound had a HepSE_cirrhosis of 0. The HepSE_cholecystitis with Hepatotoxicity [12] stood at 0. In addition, the HepSE_hepatitis in the data set with Hepatotoxicity [13] turned out to be 0. Moreover, the “HepSE_elevated liver function tests” value with Hepatotoxicity [14] is on record as 0.

In the data set with Hepatotoxicity [1], `c1cnc2cc3c(cc2n1)[C@@H]1CNC[C@H]3C1` [VARENICLINE] showed a HepSE_hepatic failure of 0. Further, the HepSE_jaundice with Hepatotoxicity [2] was found to be 0. For the same compound, in the data set with Hepatotoxicity [3], the “HepSE_Combined Scores” value came out at 1. This compound came in with a HepSE_bilirubinemia in the data set on Hepatotoxicity [4] of 0. In the data set with Hepatotoxicity [5], the “HepSE_liver function tests abnormal” value is reported as 1. In the data set with Hepatotoxicity [6], this compound registered a HepSE_liver fatty of 0. In the data set on Hepatotoxicity [7], the HepSE_liver disease is listed as 0. The HepSE_cholelithiasis with Hepatotoxicity [8] came out at 0. In the data set with Hepatotoxicity [9], this compound yielded a HepSE_hepatic necrosis of 0. Besides, in the data set with Hepatotoxicity [10], the HepSE_hepatomegaly was determined as 0. Moreover, the HepSE_cirrhosis in the data set on Hepatotoxicity [11] was 0. This compound showed a HepSE_cholecystitis with Hepatotoxicity [12] of 0. The same compound returned a HepSE_hepatitis in the data set on Hepatotoxicity [13] of 0. Also, the “HepSE_elevated liver function tests” value with Hepatotoxicity [14] was 0.

On to `CC(=O)O[C@H]1C[C@@H]2CC[C@@H]3[C@H](CC[C@@]4(C)[C@H]3C[C@H]([N+]3(C)CCCCC3)[C@@H]4OC(C)=O)[C@@]2(C)C[C@@H]1N1CCCCC1` [VECURONIUM], for which the HepSE_hepatic failure in the data set with Hepatotoxicity [1] came to 0. The compound also showed a HepSE_jaundice in the data set on Hepatotoxicity [2] of 0. Moreover, the “HepSE_Combined Scores” value in the data set with Hepatotoxicity [3] came to 0. In the data set with Hepatotoxicity [4], this compound showed a HepSE_bilirubinemia of 0. The “HepSE_liver function tests abnormal” value in the data set on Hepatotoxicity [5] turned out to be 0. The HepSE_liver fatty in the data set with Hepatotoxicity [6] is 0. The compound further came in with a HepSE_liver disease with Hepatotoxicity [7] of 0. The HepSE_cholelithiasis with Hepatotoxicity [8] is reported as 0. Further, in the data set with Hepatotoxicity [9], the HepSE_hepatic necrosis turned out to be 0. This compound yielded a HepSE_hepatomegaly in the data set with Hepatotoxicity [10] of 0. The HepSE_cirrhosis in the data set with Hepatotoxicity [11] was 0. The same compound showed a HepSE_cholecystitis in the data set with Hepatotoxicity [12] of 0. The compound also returned a HepSE_hepatitis with Hepatotoxicity [13] of 0. Further, the “HepSE_elevated liver function tests” value in the data set with Hepatotoxicity [14] is listed as 0.

The compound `COc1ccc(C(CN(C)C)C2(O)CCCCC2)cc1` (stereo unspecified) [VENLAFAXINE] had a HepSE_hepatic failure in the data set on Hepatotoxicity [1] of 0. In addition, in the data set on Hepatotoxicity [2], the HepSE_jaundice was found to be 1. For the same compound, in the data set with Hepatotoxicity [3], the “HepSE_Combined Scores” value came to 7. Further, in the data set with Hepatotoxicity [4], the HepSE_bilirubinemia is given as 1. The “HepSE_liver function tests abnormal” value in the data set on Hepatotoxicity [5] is reported as 0. In addition, the HepSE_liver fatty in the data set on Hepatotoxicity [6] is 1. Further, the HepSE_liver disease in the data set on Hepatotoxicity [7] is listed as 0. Moreover, in the data set on Hepatotoxicity [8], the HepSE_cholelithiasis was 1. For the same compound, the HepSE_hepatic necrosis with Hepatotoxicity [9] stood at 0. The compound also showed a HepSE_hepatomegaly in the data set with Hepatotoxicity [10] of 0. Also, the HepSE_cirrhosis in the data set with Hepatotoxicity [11] was 1. The HepSE_cholecystitis in the data set on Hepatotoxicity [12] is given as 1. This compound also came in with a HepSE_hepatitis with Hepatotoxicity [13] of 1. For the same compound, in the data set on Hepatotoxicity [14], the “HepSE_elevated liver function tests” value was 0.
